Assay results: ChEMBL document CHEMBL6103573, “Discovery of novel thienopyridine indole derivatives as inhibitors of tubulin polymerization targeting the colchicine-binding site with potent anticancer activities” (Eur J Med Chem, 2025)
Calls of active or inactive are those of the source. The calls are words filed in the database; no cut-off is given here.

Columns and labels:
[1] = tested on: HGC-27; assay: Induction of cell cycle arrest at G2 phase in human HGC-27 cells assessed as increase in p-Histone H3 level at 0.25 to 2.0 nmol/L measured after 48 hrs by Western blot analysis; assay type: functional, cell-based; settings: dose 0.25-2 nmol/L
[2] = tested on: MGC-803; assay: Antiproliferative activity against human MGC-803 cells assessed as survival rate at 2 nmol/L measured after 48 hrs by MTT assay relative to control; assay type: functional; settings: read-out: Survival
[3] = tested on: HGC-27; assay: Induction of apoptosis in human HGC-27 cells assessed as late apoptotic cells at 1.5 nmol/L incubated for 48 hrs by Annexin V-FITC/propidium iodide staining based flow cytometry analysis (reference value: 3.70 %); assay type: functional
[4] = tested on: MGC-803; assay: Induction of cell cycle arrest in human MGC-803 cells assessed as accumulation of cells at G2/M phase at 2 nmol/L incubated for 24 hrs by RNase A/propidium iodide staining based flow cytometric analysis relative to control; assay type: functional
[5] = tested on: MGC-803; assay: Induction of cell cycle arrest in human MGC-803 cells assessed as accumulation of cells at G2/M phase incubated for 24 hrs by RNase A/propidium iodide staining based flow cytometric analysis; assay type: functional; settings: dose 0.25-2 nmol/L
[6] = tested on: MGC-803; assay: Induction of cell cycle arrest at G2 phase in human MGC-803 cells assessed as downregulation of Cyclin B1 level at 0.25 to 2.0 nmol/L measured after 48 hrs by Western blot analysis; assay type: functional, cell-based; settings: dose 0.25-2 nmol/L
[7] = tested on: HGC-27; assay: Induction of apoptosis in human HGC-27 cells assessed as late apoptotic cells at 0.25 nmol/L incubated for 48 hrs by Annexin V-FITC/propidium iodide staining based flow cytometry analysis (reference value: 3.70 %); assay type: functional
[8] = tested on: MGC-803; assay: Induction of apoptosis in human MGC-803 cells incubated for 48 hrs by Annexin V-FITC/propidium iodide staining based flow cytometry analysis; assay type: functional, cell-based; settings: dose 0.25-2 nmol/L
[9] = tested on: HGC-27; assay: Induction of cell cycle arrest in human HGC-27 cells assessed as downregulation of Wee1 level measured after 48 hrs by Western blot analysis; assay type: functional, cell-based; settings: dose 0.25-2 nmol/L
[10] = tested on: KYSE-450; assay: Antiproliferative activity against human KYSE-450 cells assessed as inhibition of cell proliferation incubated for 48 hrs by MTT assay; assay type: functional, cell-based; settings: KYSE-450, 48 h
[11] = tested on: MGC-803; assay: Induction of apoptosis in human MGC-803 cells assessed as late apoptotic cells at 1.5 nmol/L incubated for 48 hrs by Annexin V-FITC/propidium iodide staining based flow cytometry analysis (reference value: 2.22 %); assay type: functional
[12] = tested on: HUVEC; assay: Anti-angiogenesis activity in HUVEC cells assessed as reduction in cell viability by measuring survival rate at 2 nmol/L incubated for 12 hrs by MTT assay relative to control; assay type: functional; settings: Homo sapiens, read-out: Survival
[13] = tested on: MGC-803; assay: Antiproliferative activity against human MGC-803 cells assessed as reduction in cell viability at 0.25 to 2.0 nmol/L by MTT assay; assay type: functional, cell-based; settings: dose 0.25-2 nmol/L, time 6-48 hrs
[14] = tested on: HGC-27; assay: Induction of apoptosis in human HGC-27 cells assessed as appearance of round cells at 0.25 to 2.0 nmol/L incubated for 48 hrs by bright field microscopic analysis; assay type: functional, cell-based; settings: dose 0.25-2 nmol/L
[15] = tested on: HUVEC; assay: Anti-vascular activity in HUVEC cells assessed as reduction in width of tubular network incubated for 5 hrs by Matrigel based inverted microscopic analysis; assay type: functional, cell-based; settings: Homo sapiens, dose 0.5-2 nmol/L
[16] = Toxicity in female BALB/c-nu nude mouse xenografted with human MGC-803 cells assessed as body weight loss at 5 mg/kg, po administrated every other day for 11 times and measured after 21 days; assay type: organism-based; settings: in vivo, 504 h, time 21 day
[17] = Toxicity in female BALB/c-nu nude mouse xenografted with human MGC-803 cells assessed as change in liver morphology at 5 mg/kg, po administrated every other day for 11 times and measured after 21 days by hematoxylin and eosin staining based analysis; assay type: organism-based; settings: in vivo, 504 h, time 21 day
[18] = biological target: Tubulin (Homo sapiens) (UniProt P68371+Q9H4B7+P0DPH7+P68366+Q13509+Q71U36+P04350+Q3ZCM7+P07437+P68363+Q9BQE3+Q6PEY2+Q13885+Q9BVA1+Q9BUF5); assay: Disruption of microtubule network in human HGC-27 cells assessed as appearance of multinucleation at 0.25 to 2.0 nmol/L incubated for 24 hrs by DAPI staining based fluorescence microscopic analysis; assay type: cell-based; settings: dose 0.25-2 nmol/L
[19] = tested on: MGC-803; assay: Induction of apoptosis in human MGC-803 cells assessed as increase in cleaved Caspase-3 expression at 0.25 to 2.0 nmol/L incubated for 48 hrs by Western blotting analysis; assay type: functional, cell-based; settings: dose 0.25-2 nmol/L
[20] = Toxicity in female BALB/c-nu nude mouse xenografted with human MGC-803 cells assessed as change in heart morphology at 5 mg/kg, po administrated every other day for 11 times and measured after 21 days by hematoxylin and eosin staining based analysis; assay type: organism-based; settings: in vivo, 504 h, time 21 day
[21] = tested on: HUVEC; assay: Anti-migratory activity against HUVEC cells assessed as wound healing rate at 2.0 nmol/L measured after 24 hrs by wound healing assay (reference value: 97 %); assay type: functional, Homo sapiens
[22] = tested on: HGC-27; assay: Induction of apoptosis in human HGC-27 cells assessed as early apoptotic cells at 1.5 nmol/L incubated for 48 hrs by Annexin V-FITC/propidium iodide staining based flow cytometry analysis (reference value: 2.04 %); assay type: functional
[23] = tested on: MGC-803; assay: Induction of apoptosis in human MGC-803 cells assessed as increase in total apoptotic rate at 2 nmol/L incubated for 48 hrs by Annexin V-FITC/propidium iodide staining based flow cytometry analysis relative to control; assay type: functional
[24] = biological target: Tubulin beta (Homo sapiens) (UniProt P68371+Q9H4B7+Q13509+P04350+Q3ZCM7+P07437+Q13885+Q9BVA1+Q9BUF5+A6NNZ2); assay: Competitive binding affinity to beta-tubulin colchicine binding site in human MGC-803 cells assessed as inhibition of EBI-beta-tubulin adduct band formation at 1 umol/L preincubated for 2 hrs followed by EBI addition and measured after 2 hrs by Western blotting analysis; assay type: cell-based; settings: dose 1.0 µmol/L, time 4.0 hrs
[25] = tested on: MGC-803; assay: Induction of cell cycle arrest at G2 phase in human MGC-803 cells assessed as increase in p-Histone H3 level at 0.25 to 2.0 nmol/L measured after 48 hrs by Western blot analysis; assay type: functional, cell-based; settings: dose 0.25-2 nmol/L
[26] = tested on: HGC-27; assay: Induction of apoptosis in human HGC-27 cells assessed as late apoptotic cells at 0.5 nmol/L incubated for 48 hrs by Annexin V-FITC/propidium iodide staining based flow cytometry analysis (reference value: 3.70 %); assay type: functional
[27] = tested on: MGC-803; assay: Induction of apoptosis in human MGC-803 cells assessed as increase in cleaved Caspase-9 expression at 0.25 to 2.0 nmol/L incubated for 48 hrs by Western blotting analysis; assay type: functional, cell-based; settings: dose 0.25-2 nmol/L
[28] = tested on: MGC-803; assay: Antitumor activity against human MGC-803 cells xenografted in female BALB/c-nu nude mouse assessed as increase in cleaved PARP level in tumor at 5 mg/kg, po administrated […] for 11 times and measured after 21 days by immunohistochemical analysis; assay type: functional, organism-based; settings: time 21.0 day
[29] = tested on: HUVEC; assay: Anti-migratory activity against HUVEC cells assessed as wound healing rate at 1 nmol/L measured after 24 hrs by wound healing assay (reference value: 97 %); assay type: functional, Homo sapiens
[30] = tested on: MGC-803; assay: Induction of apoptosis in human MGC-803 cells assessed as increase in nuclei brightness at 0.25 to 2.0 nmol/L incubated for 48 hrs by DAPI staining based analysis; assay type: functional, cell-based; settings: dose 0.25-2 nmol/L
[31] = tested on: HGC-27; assay: Antiproliferative activity against human HGC-27 cells assessed as survival rate at 2 nmol/L measured after 6 hrs by MTT assay relative to control; assay type: functional; settings: read-out: Survival

**Q.** Which Activity [1] does the source give for CN(c1ccc2c(ccn2C)c1)c1nc(N2CCCC2)nc2sccc12 here?
**A.** Active

**Q.** What about the viability at 0.002 µM [2] of the same compound?
**A.** 35%

**Q.** What about the Activity [3] of the same compound?
**A.** 5.22%

**Q.** And the Activity [4]?
**A.** 28.5%

**Q.** What about the Activity [5] of the same compound?
**A.** Dose-dependent-effect

**Q.** And the Activity [6]?
**A.** Active

**Q.** What about the Activity [7] of the same compound?
**A.** 3.14%

**Q.** What about the Activity [8] of the same compound?
**A.** Dose-dependent-effect

**Q.** What about the Activity [9] of the same compound?
**A.** Dose-dependent-effect

**Q.** And the IC50 [10]?
**A.** 3.16 nM

**Q.** What about the Activity [11] of the same compound?
**A.** 6.33%

**Q.** And the viability at 0.002 µM [12]?
**A.** 75.6%

**Q.** What about the Activity [13] of the same compound?
**A.** Time-dependent-effect

**Q.** What about the Activity [14] of the same compound?
**A.** Active

**Q.** And the Activity [15]?
**A.** Dose-dependent-effect

**Q.** What about the Activity [16] of the same compound?
**A.** Non-toxic

**Q.** And the Activity [17]?
**A.** Non-toxic

**Q.** What about the Activity [18] of the same compound?
**A.** Active

**Q.** And the Activity [19]?
**A.** Active

**Q.** What about the Activity [20] of the same compound?
**A.** Non-toxic

**Q.** And the Activity [21]?
**A.** 44%

**Q.** And the Activity [22]?
**A.** 15.58%

**Q.** And the Activity [23]?
**A.** 60%

**Q.** What about the Activity [24] of the same compound?
**A.** Active; Stronger Affinity Observed

**Q.** What about the Activity [25] of the same compound?
**A.** Active

**Q.** What about the Activity [26] of the same compound?
**A.** 3.5%

**Q.** And the Activity [27]?
**A.** Active

**Q.** And the Activity [28]?
**A.** Active

**Q.** And the Activity [29]?
**A.** 58%

**Q.** And the Activity [30]?
**A.** Active

**Q.** And the viability at 0.002 µM [31]?
**A.** 83%
